SMILES strings stand for the structures.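 Method: 48-hour compound exposure of cells in 96-well plates, five concentrations, linear interpolation of endpoints. TGI denotes the concentration required for complete inhibition of growth.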

Some test systems named below: A498 renal; SW-620 colon; OVCAR-4 ovarian; SK-OV-3 ovarian; A549 NSCLC; IGROV1 ovarian; T-47D breast; DU-145 prostate; K-562 leukemia; UACC-257 melanoma; NCI-H522 lung; SNB-75 CNS; M14 melanoma; SK-MEL-5 melanoma; HCT-15 colon; BT-549 breast; MALME-3M melanoma; MDA-N; UO-31 renal; PC-3 prostate.
Common to all, as to assay: NCI tumour cell line growth inhibition, 48 h

Regarding `O=C(/C=C/c1csc(-c2ccccc2)n1)NCc1ccc(C(=O)NCCc2ccccc2)cc1`, the TGI was 64.8 µM with A498 renal; more than 100 µM with SW-620 colon; more than 100 µM in the assay with OVCAR-4 ovarian; 56.2 µM in the assay with SK-OV-3 ovarian; more than 100 µM in the assay on A549 NSCLC; more than 100 µM with IGROV1 ovarian. In addition, the TGI was more than 100 µM in the assay with T-47D breast; more than 100 µM in the assay on DU-145 prostate; more than 100 µM in the assay with K-562 leukemia; more than 100 µM in the assay on UACC-257 melanoma; more than 100 µM in the assay with NCI-H522 lung; 8.31 µM in the assay with SNB-75 CNS. Besides, the TGI in the assay on M14 melanoma, with SK-MEL-5 melanoma, with HCT-15 colon, with BT-549 breast, in the assay on MALME-3M melanoma and in the assay on MDA-N was more than 100 µM throughout. Moreover, the TGI in the assay on UO-31 renal and in the assay on PC-3 prostate was more than 100 µM throughout.
Regarding `O=C(/C=C/c1ccccc1)CCN1CCN(CCC(=O)/C=C/c2ccccc2)CC1`, the TGI in the assay on A498 renal is 33.3 µM; in the assay with SW-620 colon it was 17.4 µM; with OVCAR-4 ovarian, 39.3 µM; with SK-OV-3 ovarian it was more than 100 µM; in the assay on A549 NSCLC, more than 100 µM; in the assay on IGROV1 ovarian it was 33.1 µM. In addition, the TGI with T-47D breast was 31.2 µM; in the assay on DU-145 prostate, 31.5 µM; with K-562 leukemia, more than 100 µM; with UACC-257 melanoma it was 24 µM; with NCI-H522 lung, 30 µM; in the assay on SNB-75 CNS it was 29.7 µM. The TGI stood at 23.9 µM with M14 melanoma; 28.7 µM in the assay on SK-MEL-5 melanoma; 23 µM with HCT-15 colon; 28.4 µM in the assay on BT-549 breast; 30.9 µM in the assay on MALME-3M melanoma; 6.79 µM with MDA-N. The TGI with UO-31 renal worked out at 30.8 µM; in the assay on PC-3 prostate it was 34 µM.
Take `O=[N+]([O-])C(C(Cl)=C(Cl)Cl)=C(N(Cc1ccccc1)Cc1ccccc1)N(Cc1ccccc1)Cc1ccccc1`: the TGI in the assay with A498 renal is 86.6 µM; with SW-620 colon, more than 100 µM; in the assay on SK-OV-3 ovarian, more than 100 µM; with A549 NSCLC, more than 100 µM; in the assay on IGROV1 ovarian, more than 100 µM; in the assay on T-47D breast, more than 100 µM. The TGI in the assay on DU-145 prostate, in the assay with K-562 leukemia, in the assay on UACC-257 melanoma, in the assay with NCI-H522 lung, in the assay with SNB-75 CNS and in the assay on M14 melanoma was more than 100 µM in each case. Also, the TGI in the assay with SK-MEL-5 melanoma, in the assay with HCT-15 colon, with BT-549 breast, in the assay on MALME-3M melanoma, in the assay on MDA-N and in the assay on UO-31 renal was more than 100 µM in each case. The TGI with PC-3 prostate was more than 100 µM.
Turning to `CCCC1(NC(=O)C(F)(F)F)CC(OC)OC2COC(c3ccccc3)OC21` (stereo unspecified), the TGI in the assay with A498 renal, in the assay with SW-620 colon, in the assay with OVCAR-4 ovarian, with SK-OV-3 ovarian, in the assay on A549 NSCLC and in the assay with IGROV1 ovarian was more than 100 µM throughout. Besides, the TGI in the assay with T-47D breast, in the assay with DU-145 prostate, in the assay on K-562 leukemia, in the assay with UACC-257 melanoma, in the assay on NCI-H522 lung and in the assay on SNB-75 CNS was more than 100 µM throughout. Besides, the TGI in the assay with M14 melanoma is more than 100 µM; in the assay with SK-MEL-5 melanoma it was 45.2 µM; in the assay with HCT-15 colon it was more than 100 µM; in the assay on BT-549 breast, more than 100 µM; with MALME-3M melanoma, more than 100 µM; in the assay with MDA-N it was more than 100 µM. In addition, the TGI in the assay with UO-31 renal and in the assay with PC-3 prostate was more than 100 µM each time.
Take `CCOC(=O)C1=[N+]([O-])OC2=C(O)CCCC21` (stereo unspecified): the TGI in the assay with A498 renal, in the assay on SW-620 colon, in the assay with OVCAR-4 ovarian, in the assay on SK-OV-3 ovarian, in the assay on A549 NSCLC and in the assay with IGROV1 ovarian was more than 100 µM throughout. Further, the TGI in the assay with T-47D breast, with DU-145 prostate, in the assay on K-562 leukemia, with UACC-257 melanoma, in the assay with NCI-H522 lung and in the assay on SNB-75 CNS was more than 100 µM in each case. Moreover, the TGI with M14 melanoma, in the assay on SK-MEL-5 melanoma, in the assay on HCT-15 colon, with BT-549 breast, with MALME-3M melanoma and in the assay with MDA-N was more than 100 µM in each case. For the same compound, the TGI in the assay on UO-31 renal and in the assay with PC-3 prostate was more than 100 µM in each case.
On to `C=CCOc1ccc(/C(N=Nc2ccc([N+](=O)[O-])cc2)=N/NC(=O)c2ccccc2)cc1OC`, for which the TGI with A498 renal, in the assay on SW-620 colon, with OVCAR-4 ovarian, in the assay with A549 NSCLC, with IGROV1 ovarian and in the assay with T-47D breast was more than 100 µM in each case. For the same compound, the TGI in the assay with DU-145 prostate, with UACC-257 melanoma, in the assay on NCI-H522 lung, in the assay on SNB-75 CNS, with M14 melanoma and in the assay with SK-MEL-5 melanoma was more than 100 µM in each case. Besides, the TGI with HCT-15 colon, with BT-549 breast, in the assay with MALME-3M melanoma, in the assay on MDA-N, in the assay with UO-31 renal and in the assay on PC-3 prostate was more than 100 µM each time.
With `O=C1C=C2C(=NC34CCCCC3C(c3ccccc3)C3=C(c5ccccc5CC3)N24)c2ccccc21` (stereo unspecified), the TGI in the assay with A498 renal, with SW-620 colon, in the assay with OVCAR-4 ovarian, with SK-OV-3 ovarian, with A549 NSCLC and in the assay on IGROV1 ovarian was more than 10 µM throughout. In addition, the TGI with T-47D breast, with DU-145 prostate, with K-562 leukemia, in the assay with UACC-257 melanoma, with NCI-H522 lung and with SNB-75 CNS was more than 10 µM throughout. The TGI with M14 melanoma, with SK-MEL-5 melanoma, in the assay on HCT-15 colon, in the assay on BT-549 breast, in the assay on MALME-3M melanoma and with MDA-N was more than 10 µM in each case. Also, in the assay on PC-3 prostate, the TGI is more than 10 µM.
